From PubChem BioAssay AID248 (DTP/NCI, 2004)
Several values for one entry are separate records, joined by “and”; a condition that tells them apart may be missing. Identical values can stand only once. Toxic doses and inconclusive results are not listed. No stated cut-off is given here; in the data, active means T/C of 150% or more; inactive means T/C below 125%.

Test system: L1210 leukemia ip in BDF1 mice, survival T/C
Assay: NCI In Vivo Anticancer Drug Screen. Data for tumor model L1210 Leukemia (intraperitoneal) in B6D2F1 (BDF1) mice
Settings: endpoint: mean survival time, higher = longer survival
Summary of the method: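 Ratio derived from survival: compound-dosed mice over vehicle-dosed mice, all bearing a transplantable tumor.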

[1] = dose: 100.0 mg/kg/injection, schedule: Q01DX001 (ip), vehicle: carboxymethylcellulose (CMC)
[2] = dose: 200.0 mg/kg/injection, schedule: Q01DX001 (ip), vehicle: carboxymethylcellulose (CMC)
[3] = dose: 400.0 mg/kg/injection, schedule: Q01DX001 (ip), vehicle: carboxymethylcellulose (CMC)
[4] = dose: 100.0 mg/kg/injection, schedule: Q01DX009 (ip), vehicle: Klucel (hydroxypropylcellulose) (HPC)
[5] = dose: 100.0 mg/kg/injection, schedule: Q04DX003 (ip), vehicle: Klucel (hydroxypropylcellulose) (HPC)
[6] = dose: 200.0 mg/kg/injection, schedule: Q01DX009 (ip), vehicle: Klucel (hydroxypropylcellulose) (HPC)
[7] = dose: 200.0 mg/kg/injection, schedule: Q04DX003 (ip), vehicle: Klucel (hydroxypropylcellulose) (HPC)
[8] = dose: 400.0 mg/kg/injection, schedule: Q01DX009 (ip), vehicle: Klucel (hydroxypropylcellulose) (HPC)
[9] = dose: 400.0 mg/kg/injection, schedule: Q04DX003 (ip), vehicle: Klucel (hydroxypropylcellulose) (HPC)
[10] = dose: 100.0 mg/kg/injection, schedule: Q01DX001 (ip), vehicle: Klucel (hydroxypropylcellulose) (HPC)
[11] = dose: 100.0 mg/kg/injection, schedule: Q01DX001 (ip), vehicle: saline
[12] = dose: 200.0 mg/kg/injection, schedule: Q01DX001 (ip), vehicle: Klucel (hydroxypropylcellulose) (HPC)
[13] = dose: 200.0 mg/kg/injection, schedule: Q01DX001 (ip), vehicle: saline
[14] = dose: 400.0 mg/kg/injection, schedule: Q01DX001 (ip), vehicle: saline
[15] = dose: 50.0 mg/kg/injection, schedule: Q01DX001 (ip), vehicle: saline
[16] = dose: 400.0 mg/kg/injection, schedule: Q01DX001 (ip), vehicle: Klucel (hydroxypropylcellulose) (HPC)
[17] = dose: 100.0 mg/kg/injection, schedule: Q04DX002 (ip), vehicle: saline with Tween-80
[18] = dose: 400.0 mg/kg/injection, schedule: Q04DX002 (ip), vehicle: saline with Tween-80
[19] = dose: 50.0 mg/kg/injection, schedule: Q01DX001 (ip), vehicle: Klucel (hydroxypropylcellulose) (HPC)
[20] = dose: 12.5 mg/kg/injection, schedule: Q01DX009 (ip), vehicle: saline
[21] = dose: 25.0 mg/kg/injection, schedule: Q01DX009 (ip), vehicle: saline
[22] = dose: 50.0 mg/kg/injection, schedule: Q01DX009 (ip), vehicle: saline
[23] = dose: 25.0 mg/kg/injection, schedule: Q04DX003 (ip), vehicle: saline
[24] = dose: 50.0 mg/kg/injection, schedule: Q04DX003 (ip), vehicle: saline
[25] = dose: 100.0 mg/kg/injection, schedule: Q04DX003 (ip), vehicle: saline
[26] = dose: 100.0 mg/kg/injection, schedule: Q01DX009 (ip), vehicle: saline with Tween-80
[27] = dose: 200.0 mg/kg/injection, schedule: Q01DX009 (ip), vehicle: saline with Tween-80
[28] = dose: 400.0 mg/kg/injection, schedule: Q01DX009 (ip), vehicle: saline with Tween-80
[29] = dose: 200.0 mg/kg/injection, schedule: Q04DX002 (ip), vehicle: saline with Tween-80

Measured: T/C

O=C(Nc1ccc(Br)cc1)c1cc(Br)ccc1O
inactive: dose: 50.0 mg/kg/injection, schedule: Q01DX001 (ip), vehicle: carboxymethylcellulose (CMC) 98 % of control | [1] 102 % of control | dose: 100.0 mg/kg/injection, schedule: Q04DX002 (ip), vehicle: Klucel (hydroxypropylcellulose) (HPC) 103 % of control | [2] 89 % of control | dose: 200.0 mg/kg/injection, schedule: Q04DX002 (ip), vehicle: Klucel (hydroxypropylcellulose) (HPC) 92 % of control | [3] 94 % of control | dose: 400.0 mg/kg/injection, schedule: Q04DX002 (ip), vehicle: Klucel (hydroxypropylcellulose) (HPC) 95 % of control

[O-]c1c[n+](C23CCC(c4ccccc42)c2ccccc23)no1
inactive: [4] 102 % of control | [5] 100 % of control | [6] 102 % of control | [7] 103 % of control | [8] 95 % of control | [9] 100 % of control

Cc1ccc(C(c2ccc(C)c(C)c2)C(O)C(O)C(O)C(O)CO)cc1C (stereo unspecified)
inactive: [10] 92 % of control | [11] 87 % of control | [12] 100 % of control | [13] 91 % of control | [14] 89 % of control

COc1ccc(CN2CCCN(Cc3ccc(OC)cc3OC)C2c2ccccn2)c(OC)c1
inactive: [15] 101 % of control | [11] 95 % of control | [13] 91 % of control | [14] 89 % of control

CC1C(=O)OC2C1CCC1(C)C=CC(=O)C3(C)OC213 (stereo unspecified)
inactive: [10] 97 % of control | [12] 94 % of control | [16] 96 % of control

O=C1CCCC(=O)c2ccccc21
inactive: [1] 98 % of control | [2] 93 % of control | [3] 102 % of control

CC1(C)c2cc3ccc(Cl)cc3nc2-c2ccccc2C1(C)O (stereo unspecified)
inactive: [4] 89 % of control | dose: 100.0 mg/kg/injection, schedule: Q04DX003 (ip), vehicle: acetone 98 % of control | [6] 89 % of control | dose: 200.0 mg/kg/injection, schedule: Q04DX003 (ip), vehicle: acetone 101 % of control | dose: 400.0 mg/kg/injection, schedule: Q04DX003 (ip), vehicle: acetone 91 % of control

CC(=O)C1Cc2ccccc2C1=O (stereo unspecified)
inactive: [15] 100 % of control | [11] 97 % of control | [13] 106 % of control | [14] 108 % of control

CCc1cc(/C=C2\C(=O)C=Cc3ccccc32)c(O)s1
inactive: [17] 89 % of control | [18] 89 % of control

Nc1ncc(CO)c(N)n1
inactive: dose: 25.0 mg/kg/injection, schedule: Q01DX001 (ip), vehicle: Klucel (hydroxypropylcellulose) (HPC) 100 % of control | [19] 98 % of control | [10] 98 % of control and 100 % of control

Cc1ccccc1NC(=S)N1CCOCC1
inactive: [4] 105 % of control | [6] 108 % of control | [8] 111 % of control

COc1cc([N+](=O)[O-])ccc1C(=O)NC(CCC(=O)O)C(=O)O (stereo unspecified)
inactive: [10] 95 % of control | [12] 106 % of control | [16] 100 % of control

[O-][n+]1c(C(Br)(Br)Br)ccc2ccccc21
inactive: dose: 50.0 mg/kg/injection, schedule: Q01DX009 (ip), vehicle: Klucel (hydroxypropylcellulose) (HPC) 97 % of control | [4] 95 % of control | [6] 106 % of control

CC(CN(C)C)C(=O)/C=C/c1ccccc1 (stereo unspecified)
inactive: [20] 103 % of control | [21] 104 % of control | [22] 107 % of control

N#CC(O)c1ccccc1 (stereo unspecified)
inactive: dose: 2.5 mg/kg/injection, schedule: Q01DX009 (ip), vehicle: acetone 101 % of control | dose: 5.0 mg/kg/injection, schedule: Q01DX001 (ip), vehicle: carboxymethylcellulose (CMC) 95 % of control | dose: 5.0 mg/kg/injection, schedule: Q01DX009 (ip), vehicle: acetone 102 % of control | dose: 10.0 mg/kg/injection, schedule: Q01DX001 (ip), vehicle: carboxymethylcellulose (CMC) 91 % of control | dose: 10.0 mg/kg/injection, schedule: Q01DX009 (ip), vehicle: acetone 104 % of control

OCC1CC[N-]CC1.OCC1CC[N-]CC1.[Cl][Pt+2]([Cl])([Cl])[Cl]
inactive: [20] 105 % of control | [21] 94 % of control | [23] 94 % of control | [22] 103 % of control | [24] 107 % of control | [25] 104 % of control

CCOc1ccc(-n2c(O)c(N=Nc3ccc(Br)cc3)c(=O)n(-c3ccc(OC)cc3)c2=S)cc1
inactive: [19] 94 % of control | [10] 94 % of control | [12] 94 % of control

O=C(Nc1ccc(C2=NCCN2)cc1)c1ccc(N=Nc2ccc(C(=O)Nc3ccc(C4=NCCN4)cc3)cc2)cc1
inactive: dose: 125.0 mg/kg/injection, schedule: Q01DX Z (ip), vehicle: water 106 % of control | dose: 250.0 mg/kg/injection, schedule: Q01DX Z (ip), vehicle: water 107 % of control

CC(C)CC1(C)NC(=O)NC1=O (stereo unspecified)
inactive: [26] 97 % of control | [27] 102 % of control | [28] 97 % of control

CN(C)C(=O)Nc1ccc(Cl)cc1Cl
inactive: [17] 98 % of control | [29] 110 % of control | [18] 121 % of control

CC(=O)Oc1cc(-c2ccccc2)c2oc(C)nc2c1-c1ccccc1
inactive: [5] 101 % of control | [7] 103 % of control | [9] 93 % of control

COc1ccc2nc(-c3ccc(C)cc3)cc(C(=O)O)c2c1
inactive: [11] 92 % of control | [25] 96 % of control | [13] 106 % of control | dose: 200.0 mg/kg/injection, schedule: Q04DX003 (ip), vehicle: saline 94 % of control | [14] 88 % of control | dose: 400.0 mg/kg/injection, schedule: Q04DX003 (ip), vehicle: saline 97 % of control

CCOC(CN=Cc1ccc(Cl)c(Cl)c1)OCC
inactive: [5] 94 % of control | [7] 97 % of control | [9] 96 % of control

C1=C(c2ccccc2)CCCC1
inactive: [4] 92 % of control | [5] 106 % of control | [6] 95 % of control | [7] 100 % of control | [8] 109 % of control | [9] 92 % of control

CCCCCCCCCCCC[N+]1([O-])CCOCC1
inactive: [29] 94 % of control | [18] 102 % of control

CCCCCCC(C)O[Si](C)c1ccc(OC)cc1 (stereo unspecified)
inactive: [26] 107 % of control | dose: 100.0 mg/kg/injection, schedule: Q04DX003 (ip), vehicle: saline with Tween-80 98 % of control | [27] 105 % of control | dose: 200.0 mg/kg/injection, schedule: Q04DX003 (ip), vehicle: saline with Tween-80 101 % of control | [28] 98 % of control | dose: 400.0 mg/kg/injection, schedule: Q04DX003 (ip), vehicle: saline with Tween-80 102 % of control

COC(=O)C1=COC(C)C(C=O)C1CC(=O)O (stereo unspecified)
inactive: [20] 108 % of control | dose: 20.0 mg/kg/injection, schedule: Q01DX001 (ip), vehicle: saline 103 % of control | [21] 103 % of control | [23] 110 % of control | dose: 40.0 mg/kg/injection, schedule: Q01DX001 (ip), vehicle: saline 118 % of control | [24] 111 % of control | dose: 80.0 mg/kg/injection, schedule: Q01DX001 (ip), vehicle: saline 118 % of control

CS(=O)(=O)CCC(NC(=O)NCCCl)C(=O)O (stereo unspecified)
inactive: [10] 104 % of control | [12] 96 % of control | [16] 100 % of control

Cc1ccc(O)c(N=O)c1.[Cu+2]
inactive: [15] 97 % of control | [11] 103 % of control | [13] 103 % of control

CC1CCCN(c2ccc([N+](=O)[O-])cc2[N+](=O)[O-])C1 (stereo unspecified)
inactive: [4] 105 % of control | [5] 99 % of control | [6] 96 % of control | [7] 92 % of control | [8] 99 % of control | [9] 97 % of control
